From article PMC3804601, “Single Nucleotide Polymorphisms of Human STING Can Affect Innate Immune Response to Cyclic Dinucleotides” (PLoS ONE, 2013)

How the values were obtained:
[1] = molecular target: T1, hSTING (stimulator of interferon genes) (Homo sapiens, UniProt Q86WV6); experiment: IFN-β luciferase reporter in STING-transfected, digitonin-permeabilized HEK293T cells (vector control inactive); assay type: cell-based
T1 construct: gene STING1; hSTING cDNA with C-terminal Flag tag expressed in HEK293T cells
T1 sequence (Q86WV6 whole entry): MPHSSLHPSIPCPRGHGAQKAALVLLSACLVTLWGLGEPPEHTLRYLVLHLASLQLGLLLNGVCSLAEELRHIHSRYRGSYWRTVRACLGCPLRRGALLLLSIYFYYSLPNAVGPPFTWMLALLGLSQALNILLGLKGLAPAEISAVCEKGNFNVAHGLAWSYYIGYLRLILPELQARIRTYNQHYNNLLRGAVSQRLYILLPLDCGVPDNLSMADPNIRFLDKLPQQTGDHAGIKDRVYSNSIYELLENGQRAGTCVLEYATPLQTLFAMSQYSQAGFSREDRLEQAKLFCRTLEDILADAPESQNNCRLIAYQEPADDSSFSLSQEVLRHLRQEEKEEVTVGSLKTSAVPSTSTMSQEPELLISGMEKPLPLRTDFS

[2] = molecular target: T2, hSTING (stimulator of interferon genes) (Homo sapiens, UniProt Q86WV6, H232R); experiment: isothermal titration calorimetry; DSF shift (+[…]°C); assay type: binding
T2 construct: gene STING1; C-terminal domain, residues 149-341, C-terminal 6×His tag (WT = R232)
T2 sequence (Q86WV6 149-341 H232R): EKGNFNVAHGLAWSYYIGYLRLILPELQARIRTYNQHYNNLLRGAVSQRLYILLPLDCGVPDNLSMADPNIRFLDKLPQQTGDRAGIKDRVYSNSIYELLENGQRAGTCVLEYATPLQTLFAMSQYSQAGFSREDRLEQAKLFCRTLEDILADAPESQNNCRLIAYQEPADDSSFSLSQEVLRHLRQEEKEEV

[3] = molecular target: T3, hSTING (stimulator of interferon genes) (Homo sapiens, UniProt Q86WV6, G230A/H232R); experiment: isothermal titration calorimetry; DSF shift (+[…]°C); assay type: binding
T3 construct: gene STING1; C-terminal domain, residues 149-341, C-terminal 6×His tag (WT = R232)
T3 sequence (Q86WV6 149-341 G230A/H232R): as the sequence (Q86WV6 149-341 H232R) above, with G82A counted along it

| SMILES | IFN-β luciferase reporter in STING-transfected, digitonin-permeabilized HEK293T [1] | Kd [2] [nM] | Kd [3] [nM] |
| --- | --- | --- | --- |
| Nc1ncnc2c1ncn2[C@@H]1O[C@@H]2COP(=O)(O)O[C@H]3[C@@H](O)[C@H](n4cnc5c(N)ncnc54)O[C@@H]3COP(=O)(O)O[C@H]2[C@H]1O [c-di-AMP] | 16.1 fold (ratio to unstimulated) |  |  |
| Nc1nc2c(ncn2[C@@H]2O[C@@H]3CO[P@](=O)(O)O[C@H]4[C@@H](O)[C@H](n5cnc6c(=O)[nH]c(N)nc65)O[C@@H]4CO[P@](=O)(O)O[C@H]3[C@H]2O)c(=O)[nH]1 [c-di-GMP] |  | 3300 | 1900 |
